# Measured values published in patent publication US11236085B2, “PD-1/PD-L1 inhibitors” (Gilead Sciences, Inc., priority 2018, dated 2022).
# Experiments:
# PD-L1 = target: T1, PD-L1 (Homo sapiens, UniProt Q9NZQ7); test: PD-L1/PD-L1 dimerization biochemical protein-protein interaction assay (ALPHA); settings: 0.5 nM His tagged PD-L1 and 0.5 nM FLAG tagged PD-L1; compound induced dimerization; read-out: AC50 PDL1 Dimer 1 nM
# T1 construct: determine if they can specifically dimerize the extracellular domains of PD-L1
# T1 sequence (Q9NZQ7 19-238 limits assumed): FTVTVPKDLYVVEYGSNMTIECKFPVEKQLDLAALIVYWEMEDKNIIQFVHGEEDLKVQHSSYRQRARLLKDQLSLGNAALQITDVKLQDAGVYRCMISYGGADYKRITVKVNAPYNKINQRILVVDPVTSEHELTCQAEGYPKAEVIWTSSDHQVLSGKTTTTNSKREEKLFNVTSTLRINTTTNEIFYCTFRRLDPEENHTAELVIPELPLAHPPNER
# T1 sequence (Q9NZQ7 19-238 limits assumed): as above
# Method: PD-L1/PD-L1 Dimerization Biochemical Protein-Protein Interaction Assay
# Compounds were tested in biochemical protein-protein interaction assays to determine if they can specifically dimerize the extracellular domains of PD-L1. Dimerization of the proteins (His-tagged PD-L1 and FLAG-tagged PD-L1) is measured using a bead based Amplified Luminescent Proximity Homogeneous Assay (ALPHA) platform. […] Assays are performed in 25 mM Hepes (pH 7.4), 150 mM NaCl, 3.4 mM EDTA, 0.005% Tween 20, and 0.01% BSA. Final protein concentration in the assays were 0.5 nM (His tagged PD-L1) and 0.5 nM (FLAG tagged PD-L1). After an assay reaction time of 2 hours at 25° C., 20 μg/mL (final assay concentration) ALPHA assay acceptor beads (anti-His coated) were added and incubated for 60 minutes at 25° C. Binding was measured following a final 60 minute incubation with 40 μg/mL (final assay concentration) ALPHA assay donor beads (anti-FLAG coated). AC50 values were calculated from the fit of the dose-response curves to a four-parameter equation (Table 4).
# PD-1/PD-L1 [1] = target: T2, PD-1/PD-L1 (Homo sapiens, UniProt Q9NZQ7); test: PD-1/PD-L1 NFAT reporter assay (co-culture of aAPC-PD-L1 CHO cells and Jurkat cells overexpressing PD-1, NFAT luciferase); type: cell-based; set-up: expressed in transfected cells; host or cells: CHO cells (aAPC-PD-L1) co-cultured with Jurkat cells overexpressing PD-1; settings: co-culture incubated for 6 hrs at 37° C.; luciferase under NFAT control
# Method: PD-1/PD-L1 NFAT Reporter Assay
# Compounds were tested in a functional co-culture reporter assay in which TCR-mediated NFAT activity is inhibited by the engagement of PD-1 with PD-L1. […] CHO cells expressing surface-bound anti-CD3 antibodies and PD-L1 (artificial antigen presenting cells, aAPC-PD-L1) were first seeded overnight. Jurkat cells overexpressing PD-1 and expressing a luciferase construct under NFAT control are diluted in RPMI assay medium (RPMI 1640 with 2% FBS), mixed with compounds, and immediately seeded on the monolayer of aAPC-PD-L1. The co-culture is then incubated for 6 hrs at 37° C. Luciferase activity is assessed by adding the ONE-Glo reagent and measuring luminescence with a plate reader. EC50 values are calculated from the fit of the dose-response curves to a four-parameter equation (Table 4).
# Target sequence in this assay (Q9NZQ7 19-290): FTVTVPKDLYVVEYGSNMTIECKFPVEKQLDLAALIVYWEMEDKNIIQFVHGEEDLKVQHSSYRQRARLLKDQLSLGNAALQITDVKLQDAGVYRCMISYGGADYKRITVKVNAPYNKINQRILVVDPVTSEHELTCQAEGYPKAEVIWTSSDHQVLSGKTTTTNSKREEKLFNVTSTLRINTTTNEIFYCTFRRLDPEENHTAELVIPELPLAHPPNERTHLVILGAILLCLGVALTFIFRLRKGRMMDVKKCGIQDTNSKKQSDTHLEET
# PD-1/PD-L1 [2] = target: T2, PD-1/PD-L1; test: PD-1/PD-L1 biochemical protein-protein interaction assay (ALPHA); type: binding; settings: 0.3 nM His tagged PD-L1, 2.5 nM biotinylated Fc-PD-1; 60 minutes at 25° C.; read-out: IC50 PD-L1-PD1
# Method: PD-1/PD-L1 & CTLA/CD80 Biochemical Protein-Protein Interaction Assay
# Compounds were tested in biochemical protein-protein interaction assays to determine if they can specifically block the interaction between the extracellular domains of PD-1/PD-L1 or CTLA/CD80. Binding of the protein pairs is measured using a bead based Amplified Luminescent Proximity Homogeneous Assay (ALPHA) platform. Binding of each protein pair results in proximity of the donor and acceptor beads which leads to an increase in ALPHA signal. Disruption of the protein-protein interaction with a test compound results in a decrease in ALPHA signal. Assays are performed in 25 mM Hepes (pH 7.4), 150 mM NaCl, 3.4 mM EDTA, 0.005% Tween 20, and 0.01% BSA. Final protein concentration in the assays were 0.3 nM (His tagged PD-L1), 2.5 nM (biotinylated Fc-PD-1), 1 nM (His tagged CTLA4) and 1 nM (biotinylated CD80). After an assay reaction time of 60 minutes at 25° C., binding was measured with addition of 20 μg/mL ALPHA assay acceptor beads (anti-His coated) and 20 µg/mL ALPHA assay donor beads (streptavidin coated). IC50 values were calculated from the fit of the dose-response curves to a four-parameter equation. Representative data are shown below in Table 3.
# Target sequence in this assay (Q9NZQ7 19-238 limits assumed): as the sequence (Q9NZQ7 19-238 limits assumed) above
AC50 (PD-L1) [nM],EC50 (PD-1/PD-L1 [1]) [nM],IC50 (PD-1/PD-L1 [2]) [nM],SMILES
30.9,102,0.09,Cc1c(COc2cc(OCc3cncc(C#N)c3)c(CN[C@@](C)(CO)C(=O)O)cc2Cl)cccc1-c1cccc(-c2ccc3c(c2)CNCC3NC(=O)NCC#N)c1C (stereo partly drawn) [Compound 16]
31.6,128,0.174,Cc1c(COc2cc(OCc3cncc(C#N)c3)c(CNC[C@@H](O)CC(=O)O)cc2Cl)cccc1-c1cccc(-c2ccc3c(c2)CNCC3NC(=O)NCC#N)c1C (stereo partly drawn) [Compound 17]
54.9,73,0.158,Cc1c(COc2cc(OCc3cncc(C#N)c3)c(CN[C@@](C)(CO)C(=O)O)cc2Cl)cccc1-c1cccc(-c2ccc3c(c2)CNCC3N)c1C (stereo partly drawn) [Compound 18]
20.8,95,0.064,CNC(=O)NC1CNCc2cc(-c3cccc(-c4cccc(COc5cc(OCc6cncc(C#N)c6)c(CNC[C@@H](O)CC(=O)O)cc5Cl)c4C)c3C)ccc21 (stereo partly drawn) [Compound 20]
28.3,166,0.23,C[C@](CO)(NCc1cc(Br)c(OCc2cccc(-c3cccc(-c4ccc5c(c4)CNCC5)c3Cl)c2Cl)nc1OCc1cncc(C#N)c1)C(=O)O [Compound 21]
37.7,87,0.151,C[C@@](CO)(NCc1cc(Br)c(OCc2cccc(-c3cccc(-c4ccc5c(c4)CNCC5)c3Cl)c2Cl)nc1OCc1cncc(C#N)c1)C(=O)O [Compound 22]
272,202,0.318,COc1nc(-c2cccc(-c3cccc(-c4cc5c(cn4)CNC5)c3Cl)c2Cl)ccc1CNC[C@@H]1CCC(=O)N1 [Compound 23]
41.3,184,0.086,Cc1c(COc2cc(OCc3cncc(C#N)c3)c(CN[C@@](C)(CO)C(=O)O)cc2Cl)cccc1-c1cccc(-c2ccc3c(c2)C2CCC(C3)N2)c1C (stereo partly drawn) [Compound 24]
53.5,108,0.064,Cc1c(COc2nc(OCc3cncc(C#N)c3)c(CN[C@@](C)(CO)C(=O)O)cc2Cl)cccc1-c1cccc(-c2ccc3c(c2)CNC(COC(=O)NCCO)C3)c1C (stereo partly drawn) [Compound 25]
48.9,174,0.064,CC(=O)NCC1Cc2ccc(-c3cccc(-c4cccc(COc5cc(OCc6cncc(C#N)c6)c(CN[C@@](C)(CO)C(=O)O)cc5Cl)c4C)c3C)cc2CN1 (stereo partly drawn) [Compound 26]
30.6,155,0.312,C[C@](CO)(NCc1cc(Cl)c(OCc2cccc(-c3cccc(-c4ccc5c(c4)CNCC5)c3Cl)c2Cl)nc1OCc1cc(C#N)cc(C#N)c1)C(=O)O [Compound 27]
39.7,161,0.367,C[C@@](CO)(NCc1cc(Cl)c(OCc2cccc(-c3cccc(-c4ccc5c(c4)CNCC5)c3Cl)c2Cl)nc1OCc1cc(C#N)cc(C#N)c1)C(=O)O [Compound 28]
31.5,200,0.368,C[C@](CO)(NCc1cc(Cl)c(OCc2cccc(-c3cccc(-c4ccc5c(c4)CNCC5)c3Cl)c2Cl)nc1OCc1cncc(C#N)c1)C(=O)O [Compound 29]
690,148,0.247,COc1nc(-c2cccc(-c3cccc(-c4nc5n(n4)CCNC5)c3Cl)c2Cl)ccc1CNC[C@@H]1CCC(=O)N1 [Compound 30]
314,674,0.431,COc1nc(-c2cccc(-c3cccc(-c4nc5c(s4)CNCC5)c3Cl)c2Cl)ccc1CNCCO [Compound 31]
181,288,1.14,COc1nc(-c2cccc(-c3cccc(-c4cc5c(s4)CCNC5)c3Cl)c2Cl)ccc1CN1CC2(CCC(=O)N2)C1 [Compound 32]
145,170,1.04,COc1nc(-c2cccc(-c3cccc(-c4cc5c(s4)CCNC5)c3Cl)c2Cl)ccc1CNC[C@@H]1CCC(=O)N1 [Compound 33]
174,163,1.13,COc1nc(-c2cccc(-c3cccc(-c4cc5c(s4)CNCC5)c3Cl)c2Cl)ccc1CNC[C@@H]1CCC(=O)N1 [Compound 34]
281,105,0.814,COc1nc(-c2cccc(-c3cccc(-c4nc5c(s4)CNCC5)c3Cl)c2Cl)ccc1CNC[C@@H]1CCC(=O)N1 [Compound 35]
256,142,0.588,COc1nc(-c2cccc(-c3cccc(-c4nc5c(s4)CCNC5)c3Cl)c2Cl)ccc1CNC[C@@H]1CCC(=O)N1 [Compound 36]
